Measurements from the NIST ThermoML archive (doi:10.1016/j.tca.2010.11.002).

Assays:
[1] = mn = molality of the nth substance listed, in mol/kg; conditions: 101 kPa, Liquid, Vibrating tube method
[2] = Liquid, Vibrating tube method

CN1CCCN(C)C1=O [1,3-dimethyl-3,4,5,6-tetrahydro-2(1H)-pyrimidinone] + O
mass density [kg/m3], [1]
Conditions	278.15 K	288.15 K	298.15 K	308.15 K	313.15 K	318.15 K
m1 = 0.03864	1000.41	999.51	997.43	994.38	992.55	990.54
m1 = 0.07586	1000.85	999.91	997.79	994.72	992.88	990.86
m1 = 0.1037	1001.18	1000.21	998.07	994.98	993.12	991.09
m1 = 0.1575	1001.83	1000.8	998.61	995.48	993.6	991.55
m1 = 0.2215	1002.6	1001.51	999.26	996.08	994.18	992.11
m1 = 0.2812	1003.34	1002.17	999.87	996.64	994.72	992.63
m1 = 0.407	1004.9	1003.6	1001.17	997.84	995.87	993.74
m1 = 0.5303	1006.46	1005.01	1002.46	999.04	997.02	994.85
m1 = 0.6771	1008.32	1006.7	1004.01	1000.47	998.39	996.17
m1 = 0.8298	1010.25	1008.46	1005.62	1001.96	999.83	997.56
m1 = 0.9878	1012.23	1010.27	1007.28	1003.5	1001.31	998.99

CN1CCCN(C)C1=O [1,3-dimethyl-3,4,5,6-tetrahydro-2(1H)-pyrimidinone] + [2H]O[2H]
mass density [kg/m3], [1]
Conditions	278.15 K	288.15 K	298.15 K	308.15 K	313.15 K	318.15 K
m1 = 0.0599	1105.6	1105.78	1104.3	1101.53	1099.72	1097.69
m1 = 0.08344	1105.61	1105.76	1104.25	1101.47	1099.64	1097.6
m1 = 0.1212	1105.63	1105.73	1104.18	1101.36	1099.52	1097.47
m1 = 0.1641	1105.66	1105.71	1104.11	1101.25	1099.39	1097.32
m1 = 0.2214	1105.72	1105.69	1104.03	1101.11	1099.23	1097.13
m1 = 0.3291	1105.85	1105.68	1103.9	1100.88	1098.96	1096.82
m1 = 0.5024	1106.17	1105.76	1103.77	1100.59	1098.6	1096.39
m1 = 0.6557	1106.53	1105.89	1103.73	1100.4	1098.34	1096.07
m1 = 0.7789	1106.85	1106.03	1103.73	1100.28	1098.17	1095.85
m1 = 0.9405	1107.31	1106.25	1103.76	1100.16	1097.99	1095.61
m1 = 1.074	1107.69	1106.44	1103.81	1100.09	1097.86	1095.43

[2H]O[2H] [water-d2] + CN1CCCN(C)C1=O
[1], m2 = 0
Conditions	mass density [kg/m3]
278.15 K	1105.59
288.15 K	1105.85
298.15 K	1104.43
308.15 K	1101.72
313.15 K	1099.93
318.15 K	1097.92

CN1CCCN(C)C1=O [1,3-dimethyl-3,4,5,6-tetrahydro-2(1H)-pyrimidinone]
[2], 101.33 kPa
Conditions	mass density [kg/m3]
278.15 K	1076.18
288.15 K	1067.81
298.15 K	1059.46
308.15 K	1051.12
313.15 K	1046.95
318.15 K	1042.78

[2H]O[2H] [water-d2]
[2], 101 kPa
Conditions	mass density [kg/m3]
278.15 K	1105.59
288.15 K	1105.85
298.15 K	1104.43
308.15 K	1101.72
313.15 K	1099.93
318.15 K	1097.92
